Laboratory results as given in article PMC12748989 (Nature Communications, 2025).

Tests used:
[1] = tested on: MDA-MB-231 cells
[2] = tested on: PBMC; details: 12.5 µM

SMILES	Average (percentage cell inhibition), Dmastoparan MDA-MB231 12.5uM [1]	Average (percentage cell inhibition), Mastoparan PBMC [2]
CC[C@H](C)[C@H](N)C(=O)N[C@@H](CC(N)=O)C(=O)N[C@@H](CC(C)C)C(=O)N[C@@H](CCCCN)C(=O)N[C@@H](C)C(=O)N[C@@H](CC(C)C)C(=O)N[C@@H](C)C(=O)N[C@@H](Cc1c[nH]c2ccccc12)C(=O)N[C@@H](CC(C)C)C(=O)N[C@@H](C)C(=O)N[C@@H](CCCCN)C(=O)N[C@@H](CCCCN)C(=O)N[C@H](C(=O)N[C@@H](CC(C)C)C(N)=O)[C@@H](C)CC [W8]	62.4515%	51.7838%
CC[C@H](C)[C@H](N)C(=O)N[C@@H](CC(N)=O)C(=O)N[C@@H](CC(C)C)C(=O)N[C@@H](C)C(=O)N[C@@H](C)C(=O)N[C@@H](CC(C)C)C(=O)N[C@@H](C)C(=O)N[C@@H](C)C(=O)N[C@@H](CC(C)C)C(=O)N[C@@H](C)C(=O)N[C@@H](CCCCN)C(=O)N[C@@H](CCCCN)C(=O)N[C@H](C(=O)N[C@@H](CC(C)C)C(N)=O)[C@@H](C)CC [A4]	36.5883%	11.5193%
CC[C@H](C)[C@H](N)C(=O)N[C@@H](CC(N)=O)C(=O)N[C@@H](CC(C)C)C(=O)N[C@@H](CCCCN)C(=O)N[C@@H](C)C(=O)N[C@@H](CC(C)C)C(=O)N[C@@H](C)C(=O)N[C@@H](Cc1ccc(O)cc1)C(=O)N[C@@H](CC(C)C)C(=O)N[C@@H](C)C(=O)N[C@@H](CCCCN)C(=O)N[C@@H](CCCCN)C(=O)N[C@H](C(=O)N[C@@H](CC(C)C)C(N)=O)[C@@H](C)CC [Y8]	50.1841%	22.0038%
CC[C@H](C)[C@H](N)C(=O)N[C@@H](CC(N)=O)C(=O)N[C@@H](CC(C)C)C(=O)N[C@@H](CCCCN)C(=O)N[C@@H](C)C(=O)N[C@@H](CC(C)C)C(=O)N[C@@H](C)C(=O)N[C@@H](C)C(=O)N[C@@H](CC(C)C)C(=O)N[C@@H](C)C(=O)N[C@@H](CCCCN)C(=O)N[C@@H](CCCCN)C(=O)N[C@@H](CCCCN)C(=O)N[C@@H](CC(C)C)C(N)=O [K13]	29.9957%	5%
CC[C@H](C)[C@H](N)C(=O)N[C@@H](CC(N)=O)C(=O)N[C@@H](CC(C)C)C(=O)NCC(=O)N[C@@H](C)C(=O)N[C@@H](CC(C)C)C(=O)N[C@@H](C)C(=O)N[C@@H](C)C(=O)N[C@@H](CC(C)C)C(=O)N[C@@H](C)C(=O)N[C@@H](CCCCN)C(=O)N[C@@H](CCCCN)C(=O)N[C@H](C(=O)N[C@@H](CC(C)C)C(N)=O)[C@@H](C)CC [G4]	39.0682%	15.8704%
CC[C@H](C)[C@H](N)C(=O)N[C@@H](CC(N)=O)C(=O)N[C@@H](CC(C)C)C(=O)N[C@@H](CCCCN)C(=O)N[C@@H](C)C(=O)N[C@@H](CC(C)C)C(=O)N[C@@H](C)C(=O)N[C@@H](C)C(=O)N[C@@H](CC(C)C)C(=O)N[C@@H](C)C(=O)N[C@@H](CCCCN)C(=O)N[C@@H](CCCCN)C(=O)N[C@H](C(=O)N[C@@H](CC(C)C)C(N)=O)[C@@H](C)CC [Lab Mastoparan L, reference compound]	41.709%	12.353%
CC[C@H](C)[C@H](N)C(=O)N[C@H](C(=O)N[C@@H](CC(C)C)C(=O)N[C@@H](CCCCN)C(=O)N[C@@H](C)C(=O)N[C@@H](CC(C)C)C(=O)N[C@@H](C)C(=O)N[C@@H](C)C(=O)N[C@@H](CC(C)C)C(=O)N[C@@H](C)C(=O)N[C@@H](CCCCN)C(=O)N[C@@H](CCCCN)C(=O)N[C@H](C(=O)N[C@@H](CC(C)C)C(N)=O)[C@@H](C)CC)C(C)C [V2]	91.4206%	65.6691%
